Data from patent US10597388B2, “Pyridazinone herbicides” (FMC CORPORATION, priority 2014, dated 2020).

What was measured:
Assay in all cases: Test C greenhouse herbicide test, pre- and postemergence
Format in all cases: in vivo
[1] = tested on: johnsongrass (Sorghum halepense)
Procedure, shortened: (§1)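 Each species was treated both before emergence, in a loam–sand soil mix, and after emergence, as 1- to 4-leaf seedlings in peat-based potting medium. Plants stayed in the greenhouse 13 to 15 d, then were scored from 0 (no effect) to 100 (complete control) relative to controls.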

[2] = tested on: crabgrass, large (large crabgrass, Digitaria sanguinalis)
Procedure, shortened: as §1

[3] = tested on: waterhemp (common waterhemp, Amaranthus rudis)
Procedure, shortened: as §1

[4] = tested on: wheat (winter wheat, Triticum aestivum)
Procedure, shortened: as §1

[5] = tested on: lambsquarters (Chenopodium album)
Procedure, shortened: as §1

[6] = tested on: nutsedge, yellow (yellow nutsedge, Cyperus esculentus); details: Preemergence; for Plant response rating, Nutsedge, Yellow: scale 0 to 100, 0 is no effect, 100 is complete control
Procedure, shortened: as §1

soybean (Glycine max) = tested on: soybean (Glycine max)
Procedure, shortened: as §1

[7] = tested on: oilseed rape (Brassica napus)
Procedure, shortened: as §1

[8] = tested on: barnyardgrass (Echinochloa crus-galli)
Procedure, shortened: as §1

[9] = tested on: foxtail, giant (giant foxtail, Setaria faberii)
Procedure, shortened: as §1

[10] = tested on: ragweed (common ragweed, Ambrosia elatior)
Procedure, shortened: as §1

[11] = tested on: galium (catchweed bedstraw, Galium aparine)
Procedure, shortened: as §1

[12] = Postemergence, 31 g ai/ha, 0 to 100 scale (0 no effect, 100 complete control)
[13] = Postemergence, 125 g ai/ha, scale 0 to 100, 0 is no effect, 100 is complete control
[14] = Postemergence, 250 g ai/ha, scale 0 to 100, 0 no effect, 100 complete control, 13 to 15 d
[15] = Preemergence, 31 g ai/ha, scale 0 to 100, 0 is no effect, 100 is complete control
[16] = Preemergence, 62 g ai/ha, scale 0 to 100, 0 is no effect, 100 is complete control
[17] = Preemergence, 125 g ai/ha, scale 0 to 100, 0 is no effect, 100 is complete control
[18] = Preemergence, 250 g ai/ha, scale 0 to 100, 0 no effect, 100 complete control
[19] = postemergence, 62 g ai/ha, scale 0 to 100, 0 no effect, 100 complete control

CCc1oc2ccc(C)cc2c1-c1c(O)c(C)nn(C)c1=O [Compound 10, 4-(2-ethyl-5-methyl-3-benzofuranyl)-5-hydroxy-2,6-dimethyl-3(2H)-pyridazinone]
Johnsongrass plant response rating [1, 12]: 0
Plant response rating, Johnsongrass [1, 13]: 5
Plant response rating, Johnsongrass [1, 14]: 25
Plant response rating, Johnsongrass [1, 15]: 0
Plant response rating, Johnsongrass [1, 16]: 0
Plant response rating, Johnsongrass [1, 17]: 0
Johnsongrass plant response rating [1, 18]: 0
Johnsongrass plant response rating [1, 19]: 0
Crabgrass, Large plant response rating [2, 12]: 10
Plant response rating, Crabgrass, Large [2, 13]: 65
Plant response rating, Crabgrass, Large [2, 14]: 75
Plant response rating, Crabgrass, Large [2, 15]: 0
Plant response rating, Crabgrass, Large [2, 16]: 0
Plant response rating, Crabgrass, Large [2, 17]: 0
Crabgrass, Large plant response rating [2, 18]: 0
Crabgrass, Large plant response rating [2, 19]: 30
Waterhemp plant response rating [3, 12]: 40
Plant response rating, Waterhemp [3, 13]: 50
Plant response rating, Waterhemp [3, 14]: 90
Plant response rating, Waterhemp [3, 16]: 0
Plant response rating, Waterhemp [3, 17]: 100
Waterhemp plant response rating [3, 18]: 90
Waterhemp plant response rating [3, 19]: 45
Wheat plant response rating [4, 12]: 0
Plant response rating, Wheat [4, 13]: 0
Plant response rating, Wheat [4, 14]: 0
Plant response rating, Wheat [4, 16]: 0
Plant response rating, Wheat [4, 17]: 0
Wheat plant response rating [4, 18]: 0
Wheat plant response rating [4, 19]: 0
Lambsquarters plant response rating [5, 12]: 50
Plant response rating, Lambsquarters [5, 13]: 65
Plant response rating, Lambsquarters [5, 14]: 98
Plant response rating, Lambsquarters [5, 15]: 0
Plant response rating, Lambsquarters [5, 16]: 0
Lambsquarters plant response rating [5, 18]: 30
Lambsquarters plant response rating [5, 19]: 80
Plant response rating, Nutsedge, Yellow ([6]; 31 g ai/ha): 0
Plant response rating, Nutsedge, Yellow ([6]; 62 g ai/ha): 0
Plant response rating, Nutsedge, Yellow ([6]; 125 g ai/ha): 0
Nutsedge, Yellow plant response rating ([6]; 250 g ai/ha, scale 0 to 100, 0 no effect, 100 complete control): 0
Soybean plant response rating (soybean (Glycine max); [12]): 0
Plant response rating, Soybean (soybean (Glycine max); [13]): 0
Plant response rating, Soybean (soybean (Glycine max); [14]): 0
Plant response rating, Soybean (soybean (Glycine max); [16]): 0
Plant response rating, Soybean (soybean (Glycine max); [17]): 0
Soybean plant response rating (soybean (Glycine max); [18]): 0
Soybean plant response rating (soybean (Glycine max); [19]): 0
Oilseed Rape plant response rating [7, 12]: 0
Plant response rating, Oilseed Rape [7, 13]: 0
Plant response rating, Oilseed Rape [7, 14]: 0
Plant response rating, Oilseed Rape [7, 15]: 0
Plant response rating, Oilseed Rape [7, 16]: 0
Plant response rating, Oilseed Rape [7, 17]: 0
Oilseed Rape plant response rating [7, 18]: 0
Oilseed Rape plant response rating [7, 19]: 0
Barnyardgrass plant response rating [8, 12]: 35
Plant response rating, Barnyardgrass [8, 13]: 90
Plant response rating, Barnyardgrass [8, 14]: 98
Plant response rating, Barnyardgrass [8, 15]: 0
Plant response rating, Barnyardgrass [8, 16]: 5
Plant response rating, Barnyardgrass [8, 17]: 5
Barnyardgrass plant response rating [8, 18]: 5
Barnyardgrass plant response rating [8, 19]: 90
Foxtail, Giant plant response rating [9, 12]: 70
Plant response rating, Foxtail, Giant [9, 13]: 50
Plant response rating, Foxtail, Giant [9, 14]: 90
Plant response rating, Foxtail, Giant [9, 15]: 0
Plant response rating, Foxtail, Giant [9, 16]: 0
Plant response rating, Foxtail, Giant [9, 17]: 0
Foxtail, Giant plant response rating [9, 18]: 0
Foxtail, Giant plant response rating [9, 19]: 60
Ragweed plant response rating [10, 12]: 5
Plant response rating, Ragweed [10, 13]: 70
Plant response rating, Ragweed [10, 14]: 98
Plant response rating, Ragweed [10, 15]: 0
Plant response rating, Ragweed [10, 16]: 0
Plant response rating, Ragweed [10, 17]: 0
Ragweed plant response rating [10, 18]: 5
Ragweed plant response rating [10, 19]: 30
Galium plant response rating [11, 12]: 5
Plant response rating, Galium [11, 13]: 70
Plant response rating, Galium [11, 14]: 85
Plant response rating, Galium [11, 15]: 0
Plant response rating, Galium [11, 16]: 5
Plant response rating, Galium [11, 17]: 5
Galium plant response rating [11, 18]: 45
Galium plant response rating [11, 19]: 50
